The results in this text go back to PubChem BioAssay AID330 (DTP/NCI, 2004).

The experiment has as its system P388 leukemia ip, CD2F1 mice, survival T/C. The experiment is described as follows: NCI In Vivo Anticancer Drug Screen. Data for tumor model P388 Leukemia (intraperitoneal) in CD2F1 (CDF1) mice. Conditions: endpoint: median survival time, higher = longer survival. Summed up:
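Mice carrying the transplanted tumor received test compound or vehicle. Survival was recorded in each group, and the value is the treated-group measurement divided by that of the vehicle-treated control group.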

Setting [1] is: dose: 100.0 mg/kg/injection, schedule: Q04DX003 (ip), vehicle: saline with Tween-80.
[2] abbreviates: dose: 200.0 mg/kg/injection, schedule: Q04DX003 (ip), vehicle: saline with Tween-80.
The mark [3] stands for this setting: dose: 50.0 mg/kg/injection, schedule: Q01DX005 (ip), vehicle: Klucel (hydroxypropylcellulose) (HPC).
The mark [4] stands for this setting: dose: 100.0 mg/kg/injection, schedule: Q01DX005 (ip), vehicle: Klucel (hydroxypropylcellulose) (HPC).
[5] abbreviates: dose: 200.0 mg/kg/injection, schedule: Q01DX005 (ip), vehicle: Klucel (hydroxypropylcellulose) (HPC).
[6] abbreviates: dose: 50.0 mg/kg/injection, schedule: Q01DX009 (ip), vehicle: saline.
Where [7] appears, read: dose: 100.0 mg/kg/injection, schedule: Q01DX009 (ip), vehicle: saline.
Where [8] appears, read: dose: 100.0 mg/kg/injection, schedule: Q01DX001 (ip), vehicle: saline with Tween-80.
The mark [9] stands for this setting: dose: 200.0 mg/kg/injection, schedule: Q01DX001 (ip), vehicle: saline with Tween-80.

“And” between values parts separate entries of the source, which are not always exact repeats. Equal entries are not always repeated. Toxic doses and inconclusive results are not listed.

For `CN(C)c1nc(OC2C(C(O)CO)OC3OC(C)(C)OC32)nc(N(C)C)n1` (stereo not given), the T/C by setting is: under setting [1], 105 % of control; under setting [2], 95 % of control; (dose: 400.0 mg/kg/injection, schedule: Q04DX003 (ip), vehicle: saline with Tween-80) 92 % of control.

With `COc1ccc(C(Cl)c2ccc(OC)c(OC)c2)cc1OC`, the T/C runs as follows: (dose: 25.0 mg/kg/injection, schedule: Q01DX009 (ip), vehicle: other) 100 % of control; (dose: 50.0 mg/kg/injection, schedule: Q01DX009 (ip), vehicle: other) 90 % of control; (dose: 100.0 mg/kg/injection, schedule: Q01DX009 (ip), vehicle: other) 97 % of control.

Turning to `S=C(SSC(=S)Sc1ccccc1)Sc1ccccc1`, the T/C reads like this: (dose: 100.0 mg/kg/injection, schedule: Q04DX002 (ip), vehicle: Klucel (hydroxypropylcellulose) (HPC)) 112 % of control; (dose: 200.0 mg/kg/injection, schedule: Q04DX002 (ip), vehicle: Klucel (hydroxypropylcellulose) (HPC)) 107 % of control; (dose: 400.0 mg/kg/injection, schedule: Q04DX002 (ip), vehicle: Klucel (hydroxypropylcellulose) (HPC)) 102 % of control.

Turning to `CCOC(=O)Cn1nc2oc(=O)c(CCN3CCN(c4ccccc4OC)CC3)c(C)c2c1C`, the T/C is, setting by setting: (dose: 25.0 mg/kg/injection, schedule: Q01DX005 (ip), vehicle: Klucel (hydroxypropylcellulose) (HPC)) 103 % of control; under setting [3], 100 % of control; under setting [4], 87 % of control; under setting [5], 109 % of control.

Regarding `N#C/C(=C\c1ccccc1Cl)C(N)=S`, the T/C reads like this: under setting [6], 100 % of control; under setting [7], 101 % of control; (dose: 200.0 mg/kg/injection, schedule: Q01DX009 (ip), vehicle: saline) 97 % of control.

For the compound `CCCCCCCCCCCCC[N+]1(CC)CCCCC1`, the T/C reads like this: (dose: 0.78 mg/kg/injection, schedule: Q01DX009 (ip), vehicle: saline) 105 % of control; (dose: 1.56 mg/kg/injection, schedule: Q01DX009 (ip), vehicle: saline) 118 % of control; (dose: 3.12 mg/kg/injection, schedule: Q01DX009 (ip), vehicle: saline) 110 % of control.

Take `CC(C)CCC(=O)c1ccoc1`: the T/C (dose: 0.46 mg/kg/injection, schedule: Q01DX005 (ip), vehicle: saline with Tween-80) is 103 % of control; the T/C (dose: 0.93 mg/kg/injection, schedule: Q01DX005 (ip), vehicle: saline with Tween-80) is 97 % of control; the T/C (dose: 1.87 mg/kg/injection, schedule: Q01DX005 (ip), vehicle: saline with Tween-80) is 97 % of control; the T/C (dose: 3.75 mg/kg/injection, schedule: Q01DX005 (ip), vehicle: saline with Tween-80) is 89 % of control.

On to `C[C@@H]1C[C@@H](O)[C@]2(O)O[C@@H]3C[C@@]4(C=O)[C@@H](CC=C5[C@@H]4CC[C@]4(C)C(C6=CC(=O)OC6)CC[C@]54O)C[C@H]3O[C@@H]2O1` (stereo not given in full), for which the T/C (dose: 1.75 mg/kg/injection, schedule: Q01DX005 (ip), vehicle: saline with Tween-80) was 94 % of control; the T/C (dose: 3.5 mg/kg/injection, schedule: Q01DX005 (ip), vehicle: saline with Tween-80) is 100 % of control; the T/C (dose: 7.0 mg/kg/injection, schedule: Q01DX005 (ip), vehicle: saline with Tween-80) was 98 % of control.

With `CC(CCCN(CCCl)CCCl)Nc1ccnc2cc(Cl)ccc12` (stereo not given), the T/C (dose: 0.12 mg/kg/injection, schedule: Q01DX009 (ip), vehicle: saline + alcohol) is 100 % of control; the T/C (dose: 0.5 mg/kg/injection, schedule: Q01DX009 (ip), vehicle: saline sonified) was 155 % of control; the T/C (dose: 0.66 mg/kg/injection, schedule: Q01DX009 (ip), vehicle: saline) was 159 % of control; the T/C (dose: 1.0 mg/kg/injection, schedule: Q01DX009 (ip), vehicle: saline sonified) is 155 % of control; the T/C (dose: 1.5 mg/kg/injection, schedule: Q01DX009 (ip), vehicle: saline) was 159 % of control; the T/C (dose: 2.0 mg/kg/injection, schedule: Q01DX009 (ip), vehicle: saline sonified) was 105 % of control.

With `O=C(O)C1CSC(c2cccnc2)N1` (stereo not given), the T/C is 89 % of control under setting [6] and 90 % of control under setting [7].

For the compound `CCOC(=O)C1(C(=O)OCC)N=C(c2ccccc2)C=C1c1ccccc1`, the T/C runs as follows: (dose: 50.0 mg/kg/injection, schedule: Q01DX009 (ip), vehicle: saline with Tween-80) 100 % of control; (dose: 100.0 mg/kg/injection, schedule: Q01DX009 (ip), vehicle: saline with Tween-80) 98 % of control; (dose: 200.0 mg/kg/injection, schedule: Q01DX009 (ip), vehicle: saline with Tween-80) 94 % of control.

As for `CCOC(=O)N1CCN(C(=S)N/N=C(\C)c2ncccn2)CC1`, the T/C was 123 % of control (dose: 6.25 mg/kg/injection, schedule: Q01DX005 (ip), vehicle: saline with Tween-80) and 97 % of control (dose: 12.5 mg/kg/injection, schedule: Q01DX005 (ip), vehicle: saline with Tween-80).

For `Oc1ccc(CCNCc2ccc3c(c2)OCO3)cc1`, the T/C reads like this: under setting [1], 99 % of control; under setting [2], 95 % of control.

`CC(=O)n1c(Cl)c(/C=N/NC(N)=S)c2ccccc21`: the T/C under setting [8] is 86 % of control; the T/C under setting [9] was 94 % of control; the T/C (dose: 400.0 mg/kg/injection, schedule: Q01DX001 (ip), vehicle: saline with Tween-80) was 100 % of control.

Regarding `C(/CSC/C=N/Nc1ccccc1)=N\Nc1ccccc1`, the T/C by setting is: under setting [6], 103 % of control; under setting [7], 103 % of control.

On to `c1ccc2c3c(ccc2c1)OCCOCCOc1ccc2ccccc2c1-c1c(ccc2ccccc12)OCCOCCOc1ccc2ccccc2c1-3`, for which the T/C by setting is: (dose: 100.0 mg/kg/injection, schedule: Q04DX002 (ip), vehicle: saline with Tween-80) 96 % of control; (dose: 200.0 mg/kg/injection, schedule: Q04DX002 (ip), vehicle: saline with Tween-80) 89 % of control; (dose: 400.0 mg/kg/injection, schedule: Q04DX002 (ip), vehicle: saline with Tween-80) 91 % of control.

As for `Cn1nnc(-c2ccc(C(=O)O)cc2)n1`, the T/C reads like this: under setting [3], 91 % of control; under setting [4], 91 % of control.

On to `CCCCC(CC)C1NC(C(=O)O)CS1` (stereo not given), for which the T/C (dose: 50.0 mg/kg/injection, schedule: Q01DX009 (ip), vehicle: suspension in saline) was 96 % of control; the T/C (dose: 100.0 mg/kg/injection, schedule: Q01DX009 (ip), vehicle: suspension in saline) was 87 % of control; the T/C (dose: 200.0 mg/kg/injection, schedule: Q01DX009 (ip), vehicle: suspension in saline) was 96 % of control.

As to `CC(=O)Oc1ccccc1C(=O)OCc1ccccc1`, the T/C was 94 % of control under setting [3], 92 % of control under setting [4] and 100 % of control under setting [5].

In the case of `CN(C)CCCNC(=O)Cc1cc(O)c2c(c1O)C(=O)c1ccccc1C2=O`, the T/C is, setting by setting: (dose: 25.0 mg/kg/injection, schedule: Q04DX003 (ip), vehicle: saline with Tween-80) 106 % of control; (dose: 50.0 mg/kg/injection, schedule: Q04DX003 (ip), vehicle: saline with Tween-80) 106 % of control; under setting [1], 104 % of control and 123 % of control; under setting [2], 120 % of control and 95 % of control.

On to `C/C(=N\N=c1\sc2ccccc2n1CC(=O)O)c1ccc([N+](=O)[O-])cc1`, for which the T/C was 93 % of control under setting [8] and 101 % of control under setting [9].

Take `O=[Se](O)O`: the T/C was 106 % of control and 110 % of control (dose: 0.78 mg/kg/injection, schedule: Q01DX005 (ip), vehicle: water); 114 % of control and 119 % of control (dose: 1.56 mg/kg/injection, schedule: Q01DX005 (ip), vehicle: water); 114 % of control (dose: 3.12 mg/kg/injection, schedule: Q01DX005 (ip), vehicle: water); 117 % of control (dose: 6.25 mg/kg/injection, schedule: Q01DX005 (ip), vehicle: water).

In the case of `C=CC(=O)Oc1ccccc1/C=C/C(=O)CCCCCC`, the T/C runs as follows: (dose: 50.0 mg/kg/injection, schedule: Q01DX005 (ip), vehicle: saline with Tween-80) 98 % of control; (dose: 100.0 mg/kg/injection, schedule: Q01DX005 (ip), vehicle: saline with Tween-80) 107 % of control; (dose: 200.0 mg/kg/injection, schedule: Q01DX005 (ip), vehicle: saline with Tween-80) 105 % of control.
